According to US8110565B2, “Enhanced drug delivery in transdermal systems” (Noven Pharmaceuticals, Inc., priority 2001, dated 2012):

What was measured:
[1] = Flux of ramipril, its ester prodrugs and their combinations from carrier formulations (FIGS. 8, 9); assay type: in vitro ADME
Excerpt: (§1) Prodrug effects on flux were also studied using an ace inhibitor drug, ramipril. Flux rates of two corresponding prodrugs—ramipril methyl ester and ramipril ethyl ester—were compared prior to combining with the parent drug. […] In either event, the use of an ester prodrug in place of the parent drug can achieve, at the very least, over a 10 fold increase in flux (see ramipril flux (▴) in FIG. 8—only 15% ramipril could be solubilized without forming crystals—versus ramipril ethyl ester flux without enhancers (Δ) in FIG. 9). Use of non-functional or hydroxy functional adhesives are also preferred. However, when both ramipril and a corresponding prodrug are combined in the formulations containing enhancers, an even higher flux can be obtained.

[2] = Amount of ramipril solubilized in the carrier formulation without forming crystals; assay type: physicochemical
Excerpt: as §1, with “preferred.” for “preferred. However, when both ramipril and a corresponding prodrug are combined in the formulations containing enhancers, an even higher flux can be obtained.”

SMILES: CCOC(=O)C(CCc1ccccc1)NC(C)C(=O)N1C(C(=O)OCC)CC2CCCC21 (stereo not shown) [ramipril ethyl ester]
- increase in flux over the parent drug ramipril ([1]; ester without enhancers (FIG. 9) versus 15% ramipril (FIG. 8)): > 10 fold

SMILES: CCOC(=O)[C@H](CCc1ccccc1)N[C@@H](C)C(=O)N1[C@H](C(=O)OC)C[C@@H]2CCC[C@@H]21 [ramipril methyl ester]
- flux compared with the ethyl ester derivative [1]: fluxed higher
- flux higher than the ethyl ester prodrug ([1]; without permeation enhancers, 20% drug, 20% polyacrylate adhesive, 60% polysiloxane adhesive, FIG. 9): 73%

SMILES: CCOC(=O)[C@H](CCc1ccccc1)N[C@@H](C)C(=O)N1[C@H](C(=O)O)C[C@@H]2CCC[C@@H]21 [ramipril]
- ramipril that could be solubilized without forming crystals [2]: 15%
